Laboratory results published in PMC8805583, “Discovery of Herbacetin as a Novel SGK1 Inhibitor to Alleviate Myocardial Hypertrophy” (Advanced Science, 2021).

Experiments:
[1] = molecular target: T1, SGK1 (Homo sapiens, UniProt O00141); assay: KINOMEscan direct binding assay (Eurofins Discovery)
T1 sequence (O00141 1-431): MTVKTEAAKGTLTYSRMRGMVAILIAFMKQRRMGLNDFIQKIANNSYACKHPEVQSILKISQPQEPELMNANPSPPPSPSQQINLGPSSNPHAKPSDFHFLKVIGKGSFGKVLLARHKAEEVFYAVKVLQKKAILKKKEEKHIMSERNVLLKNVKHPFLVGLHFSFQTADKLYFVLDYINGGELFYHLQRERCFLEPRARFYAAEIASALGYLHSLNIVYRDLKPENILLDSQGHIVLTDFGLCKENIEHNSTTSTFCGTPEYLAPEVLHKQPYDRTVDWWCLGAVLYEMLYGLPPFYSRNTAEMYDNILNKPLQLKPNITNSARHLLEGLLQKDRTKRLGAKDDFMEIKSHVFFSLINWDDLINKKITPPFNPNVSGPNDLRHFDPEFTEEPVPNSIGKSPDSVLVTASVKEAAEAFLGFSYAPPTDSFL
Source text: To identify active compounds with SGK1 inhibitory activity from Ext.R, a novel mass‐spectrometry based kinase inhibitory assay was developed. A polypeptide sequence ([…], m/z: 618.6) derived from glycogen Synthase Kinase‐3(GSK3), a known substrate of SGK1, was optimized and synthesized. We subsequently used liquid chromatography coupled with mass spectrometry (LC/MS) to detect and quantify its phosphorylation level ([…](p)FAE, m/z:658.7) (Figure 3A).^[ [26] ^] Basal level SGK1 was supplemented to each well, and the peak area of phosphorylation was measured in the presence or absence of testing compounds. […] After investigating the major chemical constituents in Ext.R (Table S3, Supporting Information), a set of compounds in Ext.R were subsequently screened for their impacts on SGK1 activity. […] The direct interaction between HBT and SGK1 was further verified by temperature‐ and dose‐dependent cellular thermal shift assays (Figure 3E,F). We further performed a direct binding assay of HBT to SGK1 by KINOMEscan assay (Eurofins Discovery).
The initial crystal structures of SGK1 (PDB entry: 3HDN, 3HDM, and 2R5T) were obtained from the Protein Data Bank (PDB). The prepared inhibitors were then docked by Glide with the extra precision (XP) scoring mode to estimate the binding affinity for each protein–ligand complex. The detailed process of docking has been described previously.^[ [46] ^] […]

[2] = Pharmacokinetics and tissue distribution after single oral administration; assay type: in vivo, Sprague-Dawley rats; conditions: single oral dose 40 mg kg−1
Method: Finally, we evaluate the safety and pharmacokinetics of HBT to ensure its druggability. […] Single dose administration of HBT at 40 mg kg^−1 was uptaken rapidly with a maximal plasma concentration of ≈6.73 ng mL^−1 after 10 min (Figure S14A, Supporting Information).
Figure S13. Serum level of biochemical markers in mice of Ctrl and Ctrl + HBT groups. Data were analyzed using unpaired two-tailed t test and data were expressed as means ± SD, ns: no […]
Figure S14. Plasma concentration (A) and in vivo distribution (B) of HBT after single oral administration with dosage of 40mg/kg rat weight (n=5-6). The quantitation of HBT was performed by LC-MS/MS analysis. […]
or Fluo-4 AM working solution was added to each well and incubated at 37℃ for 20 minutes.
Then the cells were washed with PBS for 3 times and images were acquired using an ImageXpress Micro® Confocal High-Content Imaging System (Molecular Devices). The mean fluorescence intensity of cells positive for DCFH-DA or Fluo-4 AM staining was […]
4. Histology and Immunohistochemistry (IHC)
At the end of the experiment, mice were sacrificed and the hearts were harvested, fixed in 4% formalin, and paraffin embedded. Fibrosis was detected with Masson’s trichrome staining kit (Sigma) according to the manufacturer’s protocol. SGK1 expression of cardiomyocytes was determined by staining cells with antibodies specific for SGK1.
RT-PCR was performed to validate DEGs in the FoxO signaling pathway in response to Ext.R and also HBT’s effect on hypertrophic cardiomyocytes stimulated with phenylephrine. Total RNA isolation, reverse transcription and quantitative RT-PCR were performed using an Ultrapure RNA Kit, a HiFiScript First Strand cDNA Synthesis Kit, and an UltraSYBR Mixture Kit (CWBIO) respectively, according to the manufacturer's instructions. Relative target gene mRNA expression level was normalized to GAPDH. Primer sequences of genes […]
6. Pharmacokinetics studies
Twelve male Sprague-Dawley rats, weighing 250 ± 10 g, were purchased from Huafukang biological technology (Beijing, China). […]

SMILES: O=c1c(O)c(-c2ccc(O)cc2)oc2c(O)c(O)cc(O)c12 [HBT, herbacetin]
- Kd ([1]; KINOMEscan, read-out: binding constants (Kds) for SGK1): 840 nM
- Kd fold lower than EMD638683 ([1]; same KINOMEscan assay): 14 fold
- Tmax ([2]; male, Sprague-Dawley, plasma, rat, read-out: time of maximal plasma concentration (converted)): 10 min
- tissue distribution (heart, liver, kidney) ([2]; at time of maximal plasma concentration): readily detected
- maximal plasma concentration ([2]; rat): ≈ 6.73 ng mL^−1
